Test results taken from ChEMBL document CHEMBL3351547, “Ricinine: a pyridone alkaloid from Ricinus communis that activates the Wnt signaling pathway through casein kinase 1α” (Bioorg Med Chem, 2014).
Active and inactive are the calls of the source. The rule behind the calls is not given here.

Assays:
STF/293 = test: Activation of TCF/beta-catenin transcription in human STF/293 cells assessed as increase in TOP activity by luciferase reporter gene assay; format: cell-based
HEK293 [1] = test: Cytotoxicity against STF reporter expressing HEK293 cells at 10 to 30 uM after 24 hrs by fluorescein diacetate dye based fluorescence assay; format: cell-based; settings: human, hek293, 24 h
HEK293 [2] = test: Activation of gene transcription in HEK293 cells assessed as increase in FOP at 10 to 30 uM activity by luciferase reporter gene assay; format: functional, cell-based; settings: Homo sapiens
[3] = Activation of Proto-oncogene protein Wnt/beta-catenin pathway in human STF/293 cells assessed as increase in cytosolic beta-catenin expression at 5 to 20 uM after 24 hrs; format: cell-based
[4] = Activation of Proto-oncogene protein Wnt/beta-catenin pathway in human STF/293 cells assessed as increase in nuclear beta-catenin expression at 5 to 20 uM after 24 hrs; format: cell-based
[5] = target: Casein kinase I isoform alpha (Homo sapiens) (UniProt P48729); test: Inhibition of CK1alpha in human STF/293 cells assessed as reduction in beta-catenin Ser33 phosphorylation at 5 to 20 uM after 24 hrs; format: cell-based
Sequence of Casein kinase I isoform alpha (Homo sapiens) (P48729 2-337 limits assumed): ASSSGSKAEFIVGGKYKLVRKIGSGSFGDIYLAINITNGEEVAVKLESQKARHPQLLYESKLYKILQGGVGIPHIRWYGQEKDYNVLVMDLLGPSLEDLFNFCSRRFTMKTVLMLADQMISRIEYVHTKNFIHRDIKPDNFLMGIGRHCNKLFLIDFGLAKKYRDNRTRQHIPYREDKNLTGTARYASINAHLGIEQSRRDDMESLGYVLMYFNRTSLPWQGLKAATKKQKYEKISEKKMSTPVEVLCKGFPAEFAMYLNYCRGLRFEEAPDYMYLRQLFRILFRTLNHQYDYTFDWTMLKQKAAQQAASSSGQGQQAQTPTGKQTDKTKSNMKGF

[6] = target: Casein kinase I isoform alpha (Homo sapiens) (UniProt P48729); test: Inhibition of CK1alpha in human STF/293 cells assessed as reduction in beta-catenin Ser37 phosphorylation at 5 to 20 uM after 24 hrs; format: cell-based
[7] = target: Casein kinase I isoform alpha (Homo sapiens) (UniProt P48729); test: Inhibition of CK1alpha in human STF/293 cells assessed as reduction in beta-catenin Ser45 phosphorylation at 5 to 20 uM after 24 hrs; format: cell-based
[8] = target: Casein kinase I isoform alpha (Homo sapiens) (UniProt P48729); test: Inhibition of CK1alpha in human STF/293 cells assessed as reduction in beta-catenin Thr41 phosphorylation at 5 to 20 uM after 24 hrs; format: cell-based
HEK293 [9] = test: Effect on GSK3beta expression in STF reporter expressing HEK293 cells at 5 to 20 uM after 24 hrs; format: functional, cell-based; settings: Homo sapiens
HEK293 [10] = test: Effect on CK1alpha expression in STF reporter expressing HEK293 cells at 5 to 20 uM after 24 hrs; format: functional, cell-based; settings: Homo sapiens
[11] = target: Casein kinase I isoform alpha (Homo sapiens) (UniProt P48729); test: Inhibition of CK1alpha in human STF/293 cells assessed as reduction in beta-catenin Ser45 phosphorylation at 20 uM in presence of 200 nM CK1alpha activator pyrvinium after 24 hrs; format: cell-based
[12] = target: Casein kinase I isoform alpha (Homo sapiens) (UniProt P48729); test: Inhibition of CK1alpha in human STF/293 cells assessed as reduction in beta-catenin Ser33/Ser37/Thr41 phosphorylation at 20 uM in presence of 200 nM CK1alpha activator pyrvinium after 24 hrs; format: cell-based
[13] = Activation of Proto-oncogene protein Wnt/beta-catenin pathway in human STF/293 cells assessed as increase in beta-catenin expression at 20 uM in presence of 200 nM CK1alpha activator pyrvinium after 24 hrs; format: cell-based
[14] = Activation of Proto-oncogene protein Wnt/beta-catenin pathway in zebra fish assessed as increase in beta-catenin expression at 100 to 300 uM treated from 1.75 hrs post fertilization to 24 hrs post fertilization; settings: Danio rerio

Row | Compound | Activity (STF/293) | Activity (HEK293 [1]) | Activity (HEK293 [2]) | Activity [3] | Activity [4] | inhibition [5] | inhibition [6] | inhibition [7] | inhibition [8] | Activity (HEK293 [9]) | Activity (HEK293 [10]) | inhibition [11] | inhibition [12] | Activity [13] | Activity [14]
1 | C=C(C)[C@@H]1CC[C@]2(C)CC[C@]3(C)[C@H](CC[C@@H]4[C@@]5(C)CC[C@H](O)C(C)(C)[C@@H]5CC[C@]43C)[C@@H]12 [LUPEOL] | Dose-dependent effect | Non-toxic | – | – | – | – | – | – | – | – | – | – | – | – | –
2 | CC[C@H](CC[C@@H](C)[C@H]1CC[C@H]2[C@@H]3C(=O)C=C4C[C@@H](O)CC[C@]4(C)[C@H]3CC[C@]12C)C(C)C | Dose-dependent effect | Non-toxic | inactive | – | – | – | – | – | – | – | – | – | – | – | –
3 | COc1ccn(C)c(=O)c1C#N [RICININE] | Dose-dependent effect | Non-toxic | inactive | Active | Active | Active | Active | Active | Active | inactive | inactive | Active | Active | Active | Dose-dependent effect
4 | CC[C@H](CC[C@@H](C)[C@H]1CC[C@H]2[C@@H]3CC=C4C[C@@H](O[C@@H]5O[C@H](CO)[C@@H](O)[C@H](O)[C@H]5O)CC[C@]4(C)[C@H]3CC[C@]12C)C(C)C [SITOGLUSIDE] | Dose-dependent effect | Non-toxic | – | – | – | – | – | – | – | – | – | – | – | – | –
